Test results reported in patent US12583848B2, “Isoxazole-3-carboxamide derivatives and their use for treatment of diseases caused by virus infection” (Collaborations Pharmaceuticals, Inc., priority 2019, dated 2026).
In brackets after ≈: the same amount, converted by molar mass. Several values for one entry are separate records, joined by “and”; a condition that tells them apart may be missing. Equal values may be shown once. Read-outs that look alike come from different tables or passages of the source.

How the values were obtained:
[1] = system: CVB3 97927-I1207K (pleconaril-resistant variant); type: cell-based, coxsackievirus B3
[2] = system: CVB3 97927-I1207M (pleconaril-resistant variant); type: cell-based, coxsackievirus B3
[3] = system: CVB3 97927-I1207T (pleconaril-resistant variant); type: cell-based, coxsackievirus B3
[4] = system: rhinovirus A2 (RV-A2); test: organism not typed; type: cell-based; conditions: HeLa, 72 h, read-out: IC50 against Rhinoviruses (RV) RV-A2
[5] = system: rhinovirus B5 (RV-B5); test: organism not typed; type: cell-based; conditions: HeLa cells, CPE inhibition, 72 hours; n.a. = not active; read-out: IC50 against Rhinoviruses (RV) RV-B5
[6] = system: rhinovirus B14 (RV-B14); test: organism not typed; type: cell-based; conditions: HeLa, 72 h, read-out: IC50 against Rhinoviruses (RV) RV-B14
[7] = Pharmacokinetic study in mice; type: in vivo, white BALB/c male mice
Method: The pharmacokinetics of the compound 8 has been studied in white BALB/c male mice. 22 animals with average body weight of 20 g were selected for the study. Before the experiment the animals were kept on standard vivarium ration with dry pelleted feed. All the test animals had free access to water but were deprived of food for 1 hour before administration of the compound. This regimen was continued for another hour after the administration. […] The animals were euthanized by decapitation for blood sampling. […] Blood was collected in heparinized tubes and centrifuged at 3500 RPM. Plasma was separated from formed elements and immediately frozen at -20° C. in freezer. This storage continued before transferring of plasma for analysis. Serum from 6 untreated animals was used as control and for equipment calibration with compound. Mice brain was immediately frozen at -120° C. Plasma separation: […] Sample preparation: A mixture of 50 μL of plasma and 150 μL of MeCN by intensive shaking (Vortex) for 30 sec. Centrifugation 14000 g for 4 min. […] See also FIG. 1.

[8] = system: polio virus-1 (strain Mahoney); test: organism not typed; type: cell-based; design: SI50: unit not given beside the values
[9] = system: Enterovirus 68 (strain US/KY/14-18953); test: microbe, parasite or virus in culture; type: cell-based; design: SI50: unit not given beside the values
[10] = system: enterovirus 71 (strain Tainan/4643/98); test: microbe, parasite or virus in culture; type: cell-based; design: SI50: unit not given beside the values
[11] = system: influenza A virus, subtype H1N1 (strain California/07/2009); test: microbe, parasite or virus in culture; type: cell-based; design: SI50: unit not given beside the values
[12] = system: mouse-adapted EV D68; test: microbe, parasite or virus in culture; type: cell-based; design: SI50: unit not given beside the values
[13] = Solubility; type: physicochemical; conditions: pH 7.4, aqueous buffer
Method: (§1) In vitro ADME studies were performed on compound 8.

[14] = Cell permeability (Caco-2); type: in vitro ADME; conditions: human, Caco-2
Method: (§2) In vitro ADME studies were performed on compound 8. Cell permeability (Caco-2) results were as follows: Apical (A) to (Basolateral) B 8.8×10^−4 cm/s; […]

[15] = system: Caco-2; test: Cell permeability (Caco-2); type: in vitro ADME; conditions: concluded from Caco-2 efflux
Method: as §2

[16] = Microsomal stability, mouse liver microsomes; type: in vitro ADME
Method: as §1

[17] = Microsomal stability, human liver microsomes; type: in vitro ADME
Method: as §1

[18] = Protein binding, human; type: in vitro ADME
Method: as §1

[19] = Protein binding, mouse; type: in vitro ADME
Method: as §1

[20] = system: Enterovirus D68 (EV-D68 MP30 PP); type: in vivo, AG129 mice; conditions: for weight loss (percentage of initial body weight) following infection: 100 mg/kg/d PO, EV-D68 infected AG129 mice, days 1-5
[21] = system: viruses resistant to pleconaril; test: Inhibition of replication of a broad spectrum of EV in vitro; type: cell-based; conditions: read-out: IC50 values for viruses resistant to pleconaril
[22] = system: cytochrome P450; test: Effect on cytochrome P450 enzyme activity; type: in vitro ADME
[23] = system: HeLa cells; conditions: human
[24] = system: CYP3A4; conditions: for CYP3A4 induction, % of control: control = rifampicin; for CYP3A4 induction (fold): cryopreserved hepatocytes, midazolam substrate
[25] = system: Escherichia coli PQ37
[26] = in vitro
[27] = target: PXR (Homo sapiens, UniProt O75469); test: biochemical
PXR, sequence (O75469 111-434 limits assumed): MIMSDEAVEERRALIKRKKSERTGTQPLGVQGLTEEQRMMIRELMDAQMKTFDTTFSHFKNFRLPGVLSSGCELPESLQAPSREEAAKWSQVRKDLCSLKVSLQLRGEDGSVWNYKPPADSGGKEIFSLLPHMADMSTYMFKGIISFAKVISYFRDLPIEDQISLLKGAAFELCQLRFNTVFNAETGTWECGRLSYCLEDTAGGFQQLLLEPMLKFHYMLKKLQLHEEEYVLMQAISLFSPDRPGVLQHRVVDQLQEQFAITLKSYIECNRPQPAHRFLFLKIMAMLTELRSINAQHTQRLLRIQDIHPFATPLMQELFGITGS

[28] = mice, 100 mg/kg intragastric, plasma
[29] = read-out: Protein binding, bound (converted)

SMILES: Cc1cc(-c2noc(C(F)(F)F)n2)ccc1OCCCc1cc(C(=O)N(C)C)no1 [Compound 8, N,N-dimethyl-5-(3-{2-methyl-4-[5-(trifluoromethyl)-1,2,4-oxadiazol-3-yl]phenoxy}propyl)isoxazole-3-carboxamide]
- IC50 [1]: 3670 nM
- IC50 [2]: 4 nM
- IC50 [3]: 10 nM
- IC50 [4]: 410 nM
- IC50 [5]: 2260 nM
- IC50 [6]: 70 nM
- Concentration in mice plasma ([7]; 0.50 hours, individual mice, 100 mg/kg intragastric, 100 mg/kg): 963.29 ng/mL and 2031.52 ng/mL and 1979.28 ng/mL and 2114.06 ng/mL and 1464.12 ng/mL
- Concentration in mice plasma ([7]; 1 hour, individual mice, 100 mg/kg intragastric, 100 mg/kg): 660.65 ng/mL and 1138.34 ng/mL
- Concentration in mice plasma ([7]; 2 hours, individual mice, 100 mg/kg intragastric, 100 mg/kg): 667.90 ng/mL and 379.89 ng/mL and 461.99 ng/mL
- Concentration in mice plasma ([7]; 3 hours, individual mice, 100 mg/kg intragastric, 100 mg/kg): 344.86 ng/mL and 107.10 ng/mL and 403.55 ng/mL
- Concentration in mice plasma ([7]; 5 hours, individual mice, 100 mg/kg intragastric, 100 mg/kg): 228.15 ng/mL and 74.82 ng/mL and 147.00 ng/mL
- Concentration in mice plasma ([7]; 7 hours, individual mice, 100 mg/kg intragastric, 100 mg/kg): 90.82 ng/mL and 44.49 ng/mL and 13.49 ng/mL and 45.70 ng/mL
- concentration at 0.5 h ([7]; male, BALB/c, mouse, plasma, oral, 100 mg/kg, 0.50 hours, 100 mg/kg intragastric): 1710 ng/mL
- concentration at 1 h ([7]; male, BALB/c, mouse, plasma, oral, 100 mg/kg, 1 hour, 100 mg/kg intragastric, read-out: Concentration in mice plasma, Average): 966 ng/mL
- concentration at 1 h ([7]; male, BALB/c, mouse, plasma, oral, 100 mg/kg, 1 hour, individual mice, 100 mg/kg intragastric, read-out: Concentration in mice plasma): 1100 ng/mL
- concentration at 2 h ([7]; male, BALB/c, mouse, plasma, oral, 100 mg/kg, 2 hours, 100 mg/kg intragastric, read-out: Concentration in mice plasma, Average): 536 ng/mL
- concentration at 2 h ([7]; male, BALB/c, mouse, plasma, oral, 100 mg/kg, 2 hours, individual mice, 100 mg/kg intragastric, read-out: Concentration in mice plasma): 634 ng/mL
- concentration at 3 h ([7]; male, BALB/c, mouse, plasma, oral, 100 mg/kg, 3 hours, 100 mg/kg intragastric): 285 ng/mL
- concentration at 5 h ([7]; male, BALB/c, mouse, plasma, oral, 100 mg/kg, 5 hours, 100 mg/kg intragastric): 124 ng/mL
- concentration at 7 h ([7]; male, BALB/c, mouse, plasma, oral, 100 mg/kg, 7 hours, 100 mg/kg intragastric): 49.6 ng/mL
- AUC ([7]; male, BALB/c, mouse, po, mice, 100 mg/kg intragastric, plasma, read-out: AUC0-oo): 3020 ng·h/mL
- oral bioavailability ([7]; mice): very high oral bioavailability
- CL [7, 28]: 0.66 L/h
- Cmax. [7, 28]: 1710.5 ± 489.2 ng/mL
- MRT [7, 28]: 129 min
- T1/2 [7, 28]: 94.8 min
- Tmax. [7, 28]: 30 min
- Vd [7, 28]: 1.52 L
- kel [7, 28]: 0.4373 h⁻¹
- SI50 [8]: 11
- EC50 ([8]; Vero 76): 320 nM
- SI50 [9]: >520
- EC50 ([9]; Enterovirus D): 18 nM
- SI50 [10]: 24
- EC50 ([10]; Enterovirus A, Vero 76): 940 nM
- SI50 [11]: 4.3
- EC90 ([11]; Influenza A virus, H1N1): 4400 nM
- SI50 [12]: 173
- EC50 ([12]; Enterovirus D, EVD68): 23 nM
- solubility [13]: 0.11 µM (≈ 0.0467 µg/mL)
- efflux ratio [14]: 3.5
- P-gp substrate [15]: likely P-gp substrate
- microsomal stability (verdict) [16]: unstable
- half-life ([16]; read-out: half-life (t1/2)): 19.6 min
- microsomal CLint ([16]; read-out: intrinsic clearance (CLint)): 70.6 µL/min/mg
- half-life [17]: 55.3 min
- microsomal CLint [17]: 25.1 µL/min/mg
- Protein binding, stability [18]: 93.9%
- fraction unbound [18, 29]: 0.003
- Protein binding, stability [19]: 88.1%
- fraction unbound [19, 29]: 0.002
- weight loss (percentage of initial body weight) following infection [20]: protected mice from weight loss
- weight loss (percentage of initial body weight) following infection ([20]; listed as compound 8): significant protection from weight loss
- blood virus ([20]; day 5 post-infection): No virus was detected
- IC50 [21]: 40 to 640 nM
- effect on cytochrome P450 enzyme activity [22]: without affecting cytochrome P450 enzyme activity
- CC50 [23]: 13400 nM
- CYP3A4 induction, % of control ([24]; 1 μM): 3 % of control
- CYP3A4 induction (fold) ([24]; 1 μM): 1.2 ×
- CYP3A4 induction, % of control ([24]; 10 μM): 7 % of control
- CYP3A4 induction (fold) ([24]; 10 μM): 1.4 ×
- Mutagenicity [25]: NO
- CC50 [26]: 52000 nM
- IC50 [27]: > 100000 nM
